Test results: patent US8058395B2, “Chimeric protein comprising a green fluorescent ptotein fused to a transcription factor” (The United States of America as represented by the …, priority 1995, dated 2011)

Legend:
Assay type in all cases: cell-based
GFP-GR [1] = target: T1, GFP-GR (Rattus norvegicus, UniProt P06536, C656G/D98G); assay: Cytoplasm-to-nuclear translocation of GFP-GR in living transfected murine adenocarcinoma cells (video/confocal microscopy)
T1 construct: expressed in transfected cells; host or cells: 1471.1 cells (murine C127 adenocarcinoma derivative); 3134 cells (C127 derivative) for gene targeting

GFP-GR [2] = target: T1, GFP-GR; assay: Intranuclear accumulation pattern (foci) of GFP-GR, confocal microscopy and 3D reconstruction; settings: ligand-treated cells
GFP-GR [3] = target: T1, GFP-GR; assay: Activation of endogenous multi-copy MMTV LTR-CAT reporter in 1471.1 cells expressing GFP-GR (ligand specificity); settings: 4 hrs, dex 1 nM and 10 nM, RU486 10 nM

Compound | fluorescing cells in which translocation of GFP-GR occurs (GFP-GR [1]) [%] | intranuclear focal accumulation pattern of GFP-GR (GFP-GR [2]) | extent of GFP-GR cytoplasm-to-nuclear translocation (GFP-GR [1]; 10 nM ligand, 30 min at 37° C.) | activation of MMTV LTR-CAT reporter (GFP-GR [3])
C[C@@H]1C[C@H]2[C@@H]3CCC4=CC(=O)C=C[C@]4(C)[C@@]3(F)[C@@H](O)C[C@]2(C)[C@@]1(O)C(=O)CO [dexamethasone] | 100 | – | – | –
C[C@]12CC[C@@H]3c4ccc(O)cc4CC[C@H]3[C@@H]1CC[C@@H]2O [17-β-estradiol] | – | not observed | did not cause intranuclear GFP-GR accumulation | fails to activate
